Experimental data taken from paper PMC8123931 (Nature chemical biology, 2020).
Read-outs that look alike come from different tables or passages of the source.

Legend:
EGFR L858R/T790M/C797S [1] = target: T1, EGFR L858R/T790M/C797S (Homo sapiens, UniProt P00533, C797S/L858R/T790M); test: MaMTH-DS assay and screen, EGFR L858R/T790M/C797S bait with Shc1 prey; assay type: cell-based
[2] = target: purified pig brain tubulin (Sus scrofa, UniProt P02550+P02554); test: In vitro microtubule dynamics assay with mCherry-EB3; assay type: biochemical
EGFR ex19del/T790M/C797S = EGFR ex19del/T790M/C797S (Homo sapiens, UniProt P00533, C797S/DEL746-750/T790M); test: In vitro kinase assay, recombinant kinase domain; assay type: biochemical
EGFR L858R/T790M/C797S [3] = target: T1, EGFR L858R/T790M/C797S; test: In vitro kinase assay, recombinant kinase domain; assay type: biochemical
EGFR L858R/T790M/C797S [4] = target: T1, EGFR L858R/T790M/C797S; test: MaMTH-DS assay, EGFR L858R/T790M/C797S bait with CrkII and Hsp90; assay type: cell-based

purified pig brain tubulin, sequence (P02550 whole entry, the tested form may be a part): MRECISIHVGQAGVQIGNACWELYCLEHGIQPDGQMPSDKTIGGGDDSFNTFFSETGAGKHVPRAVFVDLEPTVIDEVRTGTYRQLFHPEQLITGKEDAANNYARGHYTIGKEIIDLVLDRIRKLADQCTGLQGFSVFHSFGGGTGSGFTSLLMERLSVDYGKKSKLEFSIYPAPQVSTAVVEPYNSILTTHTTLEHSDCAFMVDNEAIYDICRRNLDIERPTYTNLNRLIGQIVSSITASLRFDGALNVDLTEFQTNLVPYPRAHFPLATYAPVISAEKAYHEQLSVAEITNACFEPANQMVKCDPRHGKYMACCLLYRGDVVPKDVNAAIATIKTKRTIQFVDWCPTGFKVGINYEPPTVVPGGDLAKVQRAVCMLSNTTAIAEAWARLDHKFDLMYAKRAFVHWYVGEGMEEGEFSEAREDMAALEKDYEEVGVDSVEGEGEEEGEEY
purified pig brain tubulin, sequence (P02554 whole entry, the tested form may be a part): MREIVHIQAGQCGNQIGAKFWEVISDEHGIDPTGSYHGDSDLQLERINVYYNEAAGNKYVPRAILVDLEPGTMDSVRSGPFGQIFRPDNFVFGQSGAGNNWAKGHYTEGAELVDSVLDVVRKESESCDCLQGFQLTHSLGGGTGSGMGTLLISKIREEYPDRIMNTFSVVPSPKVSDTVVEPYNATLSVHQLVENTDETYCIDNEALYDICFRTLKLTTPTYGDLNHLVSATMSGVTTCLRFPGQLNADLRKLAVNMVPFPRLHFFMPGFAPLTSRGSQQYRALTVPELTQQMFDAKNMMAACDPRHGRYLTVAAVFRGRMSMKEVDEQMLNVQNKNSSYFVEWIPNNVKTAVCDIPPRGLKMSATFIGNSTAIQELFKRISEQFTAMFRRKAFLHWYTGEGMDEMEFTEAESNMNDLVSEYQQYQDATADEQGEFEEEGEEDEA

With `CCN(CC)c1ccc2cc(-c3nc4ccccc4o3)c(=O)oc2c1` [EMI1, 3-(1,3-benzoxazol-2-yl)-7-(diethylamino)-2H-chromen-2-one] the “interaction of Shc1 with EGFR L858R/T790M/C797S (in words)” value (EGFR L858R/T790M/C797S [1]) was “potently reducing the interaction of EGFR triple mutant with Shc1”, the “interaction of Shc1 with EGFR L858R/T790M/C797S (in words)” value (EGFR L858R/T790M/C797S [1]; listed as ChemBridge compound 5213777) was “robust, dose-dependent inhibition” and the “microtubule dynamics (growth rate, time, catastrophe frequency)” value [2] was “reduced microtubule growth rate and time, while increasing catastrophe frequency”. The “inhibition of kinase activity of EGFR triple-mutant protein” value (EGFR ex19del/T790M/C797S) was “no inhibition of the kinase activity”, the “inhibition of kinase activity of EGFR triple-mutant protein” value (EGFR L858R/T790M/C797S [3]) was “no inhibition of the kinase activity” and the “interaction of CrkII with EGFR L858R/T790M/C797S” value (EGFR L858R/T790M/C797S [4]) was “inhibited interaction of both proteins with EGFR at a level similar to that observed with Shc1”. For the same compound, the “interaction of Hsp90 with EGFR L858R/T790M/C797S” value (EGFR L858R/T790M/C797S [4]) was “inhibited interaction of both proteins with EGFR at a level similar to that observed with Shc1”.
